Read-outs that look alike come from different tables or passages of the source. Marks after values point to notes of the source that are not given here.
Assay: Phase 1/1b clinical trial: plasma pharmacokinetics of PF-07220060
Assay type: in vivo, human
Conditions: for Cmax / AUC / Tmax / half-life: human, plasma, po; for Tmax: median, read-out: Tmax; for half-life: arithmetic mean
Method: Oral PF-07220060 was administered with at least 8 oz (240 mL) of water on an empty stomach (except during the food effect evaluation on Day-7 in Part 1D). No food or liquids other than water was consumed for 2 hours before and 1 hour following each dose throughout the study for BID dosing. No food or liquids other than water was consumed for 2 hours before and 2 hours after each dose throughout the study for QD dosing.
In the ongoing Phase 1/1b Study, as of Aug. 30, 2022, preliminary PK data for PF-07220060 as monotherapy (Part 1A) and in combination with endocrine therapy (Part 1B and Part 1C) was available from 60 participants with advanced solid tumors. PF-07220060 was administered orally as a single agent at doses ranging from 100 to 500 mg BID, and in combination with either letrozole or fulvestrant at 300 to 400 mg BID. Available plasma concentration-time data of PF-07220060 were analyzed using noncompartmental methods.
Preliminary noncompartmental PK analysis was conducted based on available samples collected from participants in the Study. […] Table 4 presents the summary of PK parameters for PF-07220060 as monotherapy, and in combination with letrozole or fulvestrant.

[1] = 200 mg BID oral monotherapy (Part 1A), C1D15, geometric mean
[2] = 300 mg BID oral + fulvestrant (Part 1C), C1D15, geometric mean
[3] = 300 mg BID oral + letrozole (Part 1B), C1D15, geometric mean
[4] = 300 mg BID oral monotherapy (Part 1A), C1D15, geometric mean
[5] = 400 mg BID oral + fulvestrant (Part 1C), C1D15, geometric mean
[6] = 400 mg BID oral + letrozole (Part 1B), C1D15, geometric mean
[7] = 400 mg BID oral monotherapy (Part 1A), C1D15, geometric mean

CC(C)n1c(C(C)(C)O)nc2c(F)cc(-c3nc(N[C@@H]4CCOC[C@H]4O)ncc3Cl)cc21 [PF-07220060, 1,5-anhydro-3-({5-chloro-4-[4-fluoro-2-(2-hydroxypropan-2-yl)-1-(propan-2-yl)-1H-benzimidazol-6-yl]pyrimidin-2-yl}amino)-2,3-dideoxy-D-threo-pentitol]
CL/F (100 mg BID oral monotherapy (Part 1A), C1D15, geometric mean, n = 2): 24.61 L/h | CL/F [1]: 31.41 L/h | Cmin [1]: 440 ng/mL | CL/F [2]: 38.02 L/h | Cmin [2]: 347.4 ng/mL | CL/F [3]: 28.95 L/h | Cmin [3]: 487.1 ng/mL | CL/F [4]: 37.06 L/h | Cmin [4]: 470.4 ng/mL | CL/F [5]: 41.86 L/h | Cmin [5]: 563.3 ng/mL | CL/F [6]: 34.9 L/h | Cmin [6]: 728.3 ng/mL | CL/F [7]: 49.98 L/h | Cmin [7]: 450.3 ng/mL | Cmin (500 mg BID oral monotherapy (Part 1A), C1D15, geometric mean): 848.8 ng/mL | CL/F (500 mg BID oral monotherapy (Part 1A), C1D15, n = 1): 40.1^a L/hr | Cmax (100 mg, 100 mg BID oral monotherapy (Part 1A), C1D1 post first dose, geometric mean): 280 ng/mL | AUC (100 mg, 100 mg BID oral monotherapy (Part 1A), C1D1 post first dose, geometric mean, read-out: AUC12): 1780 ng·h/mL | Tmax (100 mg, 100 mg BID oral monotherapy (Part 1A), C1D1 post first dose): 2 h | AUC (100 mg, 100 mg BID oral monotherapy (Part 1A), C1D15, geometric mean, n = 2, read-out: AUCtau): 4060 ng·h/mL | Cmax (100 mg, 100 mg BID oral monotherapy (Part 1A), C1D15 post multiple doses, geometric mean): 617 ng/mL | Tmax (100 mg, 100 mg BID oral monotherapy (Part 1A), C1D15 post multiple doses): 1 h | Cmax (200 mg, 200 mg BID oral monotherapy (Part 1A), C1D1 post first dose, geometric mean): 454 ng/mL | AUC (200 mg, 200 mg BID oral monotherapy (Part 1A), C1D1 post first dose, geometric mean, read-out: AUC12): 2330 ng·h/mL | Tmax (200 mg, 200 mg BID oral monotherapy (Part 1A), C1D1 post first dose): 3.9 h | half-life (200 mg, 200 mg BID oral monotherapy (Part 1A), C1D15): 5.1 h | AUC (200 mg, 200 mg BID oral monotherapy (Part 1A), C1D15, geometric mean, read-out: AUCtau): 6370 ng·h/mL | Cmax (200 mg, 200 mg BID oral monotherapy (Part 1A), C1D15 post multiple doses, geometric mean): 1010 ng/mL | Tmax (200 mg, 200 mg BID oral monotherapy (Part 1A), C1D15 post multiple doses): 2.5 h | Cmax (300 mg BID oral + fulvestrant (Part 1C), C1D1 post first dose, geometric mean): 849 ng/mL | AUC (300 mg BID oral + fulvestrant (Part 1C), C1D1 post first dose, geometric mean, read-out: AUC12): 6130 ng·h/mL | Tmax (300 mg BID oral + fulvestrant (Part 1C), C1D1 post first dose): 2 h | half-life (300 mg BID oral + fulvestrant (Part 1C), C1D15): 5.7 h | AUC (300 mg BID oral + fulvestrant (Part 1C), C1D15, geometric mean, read-out: AUCtau): 7890 ng·h/mL | Cmax (300 mg BID oral + fulvestrant (Part 1C), C1D15 post multiple doses, geometric mean): 1190 ng/mL | Tmax (300 mg BID oral + fulvestrant (Part 1C), C1D15 post multiple doses): 1 h | Cmax (300 mg BID oral + letrozole (Part 1B), C1D1 post first dose, geometric mean): 989 ng/mL | AUC (300 mg BID oral + letrozole (Part 1B), C1D1 post first dose, geometric mean, read-out: AUC12): 6440 ng·h/mL | Tmax (300 mg BID oral + letrozole (Part 1B), C1D1 post first dose): 3 h | half-life (300 mg BID oral + letrozole (Part 1B), C1D15): 4.1 h | AUC (300 mg BID oral + letrozole (Part 1B), C1D15, geometric mean, read-out: AUCtau): 10400 ng·h/mL

From patent US20250041298A1, “CDK4 INHIBITOR FOR THE TREATMENT OF CANCER” (Pfizer Inc., priority 2021, published 2025)
